From ChEMBL document CHEMBL2321873, “1-(4-Phenylpiperazin-1-yl)-2-(1H-pyrazol-1-yl)ethanones as novel CCR1 antagonists” (Bioorg Med Chem Lett, 2013) come the findings set out here.

Data set [1] deals with T1, C-C chemokine receptor type 7 (Homo sapiens) (UniProt P32248).
T1 sequence (whole entry): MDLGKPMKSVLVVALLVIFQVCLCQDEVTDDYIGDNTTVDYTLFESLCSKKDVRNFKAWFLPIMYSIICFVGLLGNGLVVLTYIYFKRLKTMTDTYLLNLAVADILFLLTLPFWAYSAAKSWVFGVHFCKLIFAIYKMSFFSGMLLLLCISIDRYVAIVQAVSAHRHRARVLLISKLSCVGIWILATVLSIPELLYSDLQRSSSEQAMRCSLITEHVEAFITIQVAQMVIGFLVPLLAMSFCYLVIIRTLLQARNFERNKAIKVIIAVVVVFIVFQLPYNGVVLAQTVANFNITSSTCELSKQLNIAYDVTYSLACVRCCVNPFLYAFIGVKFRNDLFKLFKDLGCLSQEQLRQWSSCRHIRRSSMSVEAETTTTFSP
Put plainly: Antagonist activity at CCR7 (unknown origin) assessed as inhibition of chemotaxis at 10 uM.

The target of data set [2] is T2, C-C chemokine receptor-like 2 (Homo sapiens) (UniProt O00421).
T2 sequence (whole entry): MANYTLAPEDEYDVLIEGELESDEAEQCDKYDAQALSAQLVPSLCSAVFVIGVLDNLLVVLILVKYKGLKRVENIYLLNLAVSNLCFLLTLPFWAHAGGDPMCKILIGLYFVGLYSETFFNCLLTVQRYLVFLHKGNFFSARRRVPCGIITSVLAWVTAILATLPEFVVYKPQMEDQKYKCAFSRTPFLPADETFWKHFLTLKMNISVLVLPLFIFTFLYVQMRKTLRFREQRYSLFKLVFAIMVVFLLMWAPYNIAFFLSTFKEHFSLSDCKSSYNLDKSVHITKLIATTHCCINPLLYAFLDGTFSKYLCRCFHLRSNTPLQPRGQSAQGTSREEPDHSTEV
Put plainly: Antagonist activity at CCR11 (unknown origin) assessed as inhibition of calcium flux at 10 uM. Format: functional. (In general: Calcium assays in cells follow changes in intracellular calcium, usually with a dye or a luminescent sensor.)

Data set [3] addresses C-C chemokine receptor type 8 (Homo sapiens) (UniProt P51685). Put plainly: Antagonist activity at CCR8 (unknown origin) assessed as inhibition of calcium flux at 10 uM. Format: functional.
Data set [4] has as its target T3, G protein-coupled receptor (Human herpesvirus 8) (UniProt Q76SF8).
T3 sequence (whole entry): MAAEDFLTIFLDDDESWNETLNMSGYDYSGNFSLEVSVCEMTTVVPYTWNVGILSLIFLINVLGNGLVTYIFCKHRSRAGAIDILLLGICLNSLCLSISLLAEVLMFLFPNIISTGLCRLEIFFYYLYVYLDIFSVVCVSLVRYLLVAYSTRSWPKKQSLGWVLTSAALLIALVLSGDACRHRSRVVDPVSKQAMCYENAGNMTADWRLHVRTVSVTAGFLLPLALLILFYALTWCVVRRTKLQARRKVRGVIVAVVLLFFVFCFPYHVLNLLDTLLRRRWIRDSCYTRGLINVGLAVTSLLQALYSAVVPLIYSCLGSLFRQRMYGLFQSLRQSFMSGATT
Kind of data set: Binding affinity to HHV8 ORF74 at 10 uM by radioligand displacement assay. The following applies: Human gammaherpesvirus 8. (In general: Displacement assays read how much labelled ligand stays bound in the presence of the test substance.)

For data set [5], the target named is T4, C-X-C chemokine receptor type 2 (Homo sapiens) (UniProt P25025).
T4 sequence (whole entry): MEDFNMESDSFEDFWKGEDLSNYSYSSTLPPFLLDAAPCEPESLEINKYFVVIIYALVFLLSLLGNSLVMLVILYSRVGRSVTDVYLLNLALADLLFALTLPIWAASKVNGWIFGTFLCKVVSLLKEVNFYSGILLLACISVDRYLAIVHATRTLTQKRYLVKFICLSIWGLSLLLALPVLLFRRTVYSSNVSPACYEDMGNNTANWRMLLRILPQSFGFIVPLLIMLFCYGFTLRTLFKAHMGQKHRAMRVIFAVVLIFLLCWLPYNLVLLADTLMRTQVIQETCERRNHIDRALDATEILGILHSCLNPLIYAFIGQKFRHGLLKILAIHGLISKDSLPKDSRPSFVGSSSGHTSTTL
Kind of data set: Binding affinity to CXCR2 (unknown origin) at 10 uM by radioligand displacement assay.

Data set [6] deals with T5, C-X-C chemokine receptor type 1 (Homo sapiens) (UniProt P25024).
T5 sequence (whole entry): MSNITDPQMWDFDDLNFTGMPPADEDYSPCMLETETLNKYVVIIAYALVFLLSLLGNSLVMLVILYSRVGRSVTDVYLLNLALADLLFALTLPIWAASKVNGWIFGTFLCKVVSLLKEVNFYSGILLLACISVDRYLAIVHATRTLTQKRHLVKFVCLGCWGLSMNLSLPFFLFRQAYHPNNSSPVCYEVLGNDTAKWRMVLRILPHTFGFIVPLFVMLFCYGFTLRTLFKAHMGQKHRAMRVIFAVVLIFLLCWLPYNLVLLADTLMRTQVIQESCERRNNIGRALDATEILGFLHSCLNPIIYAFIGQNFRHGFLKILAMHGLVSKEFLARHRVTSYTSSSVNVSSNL
Put plainly: Binding affinity to CXCR1 (unknown origin) at 10 uM by radioligand displacement assay.

The target in data set [7] is C-C chemokine receptor type 5 (Homo sapiens) (UniProt P51681). Put plainly: Binding affinity to CCR5 (unknown origin) at 10 uM by radioligand displacement assay.
The target of data set [8] is T6, C-C chemokine receptor type 3 (Homo sapiens) (UniProt P51677).
T6 sequence (whole entry): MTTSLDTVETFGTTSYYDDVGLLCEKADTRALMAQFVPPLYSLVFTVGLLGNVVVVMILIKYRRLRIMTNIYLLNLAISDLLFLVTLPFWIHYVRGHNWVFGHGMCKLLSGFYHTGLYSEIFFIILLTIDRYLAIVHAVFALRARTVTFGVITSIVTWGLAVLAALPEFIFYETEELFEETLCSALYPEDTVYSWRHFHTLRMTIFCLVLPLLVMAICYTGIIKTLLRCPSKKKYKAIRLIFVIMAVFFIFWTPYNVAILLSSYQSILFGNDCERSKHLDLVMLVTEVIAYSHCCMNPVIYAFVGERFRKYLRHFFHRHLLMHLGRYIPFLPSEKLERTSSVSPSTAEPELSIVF
Put plainly: Binding affinity to CCR3 (unknown origin) at 10 uM by radioligand displacement assay.

The test system of data set [9] is Salmonella typhimurium. Kind of data set: Genotoxicity in Salmonella typhimurium by Ames test in presence of S9 fractions. The class given is toxicity, organism-based, S9 Fraction. The conditions noted are these: salmonella enterica subsp. enterica serovar typhimurium. (The Ames test detects mutagens through reverse mutation in bacteria.)
Data set [10] concerns Salmonella typhimurium. Kind of data set: Genotoxicity in Salmonella typhimurium by Ames test in absence of S9 fractions. Format: toxicity, organism-based. The conditions noted are these: salmonella enterica subsp. enterica serovar typhimurium.
The target in a further data set is Cytochrome P450 2D6 (Homo sapiens, UniProt P10635). Put plainly: Competitive inhibition of CYP2D6 (unknown origin). The class given is ADME.
A short description of data set [11]: Half life in Beagle dog at 1 mg/kg, iv. The class given is ADME, organism-based, Canis lupus familiaris. Further details: dose 1 mg/kg, route intravenous. The conditions noted are these: in vivo.

pIC50: −log10 of the molar value. The source made the active and inactive calls. Some results are limits rather than exact numbers.

C-C chemokine receptor type 5 (Homo sapiens), sequence (P51681 whole entry, looked up): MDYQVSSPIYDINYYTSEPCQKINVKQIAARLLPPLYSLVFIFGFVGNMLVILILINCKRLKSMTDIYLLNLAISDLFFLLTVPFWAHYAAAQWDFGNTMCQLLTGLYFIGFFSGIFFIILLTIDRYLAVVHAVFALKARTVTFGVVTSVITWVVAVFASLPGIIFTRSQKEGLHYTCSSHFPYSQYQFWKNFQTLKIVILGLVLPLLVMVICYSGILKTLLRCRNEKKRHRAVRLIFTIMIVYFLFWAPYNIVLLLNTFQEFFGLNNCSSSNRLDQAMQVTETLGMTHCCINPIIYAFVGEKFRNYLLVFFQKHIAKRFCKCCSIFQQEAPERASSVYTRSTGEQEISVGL
C-C chemokine receptor type 8 (Homo sapiens), sequence (P51685 whole entry): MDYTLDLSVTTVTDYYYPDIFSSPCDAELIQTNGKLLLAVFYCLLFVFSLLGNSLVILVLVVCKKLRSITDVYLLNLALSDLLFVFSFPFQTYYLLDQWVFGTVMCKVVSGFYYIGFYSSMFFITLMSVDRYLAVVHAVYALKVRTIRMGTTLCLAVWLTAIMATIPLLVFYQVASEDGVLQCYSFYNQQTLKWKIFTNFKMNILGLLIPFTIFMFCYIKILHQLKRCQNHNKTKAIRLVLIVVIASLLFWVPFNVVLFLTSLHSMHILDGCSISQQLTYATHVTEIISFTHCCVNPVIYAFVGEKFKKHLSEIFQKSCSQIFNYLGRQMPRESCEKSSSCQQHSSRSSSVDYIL
Cytochrome P450 2D6, sequence (P10635 whole entry): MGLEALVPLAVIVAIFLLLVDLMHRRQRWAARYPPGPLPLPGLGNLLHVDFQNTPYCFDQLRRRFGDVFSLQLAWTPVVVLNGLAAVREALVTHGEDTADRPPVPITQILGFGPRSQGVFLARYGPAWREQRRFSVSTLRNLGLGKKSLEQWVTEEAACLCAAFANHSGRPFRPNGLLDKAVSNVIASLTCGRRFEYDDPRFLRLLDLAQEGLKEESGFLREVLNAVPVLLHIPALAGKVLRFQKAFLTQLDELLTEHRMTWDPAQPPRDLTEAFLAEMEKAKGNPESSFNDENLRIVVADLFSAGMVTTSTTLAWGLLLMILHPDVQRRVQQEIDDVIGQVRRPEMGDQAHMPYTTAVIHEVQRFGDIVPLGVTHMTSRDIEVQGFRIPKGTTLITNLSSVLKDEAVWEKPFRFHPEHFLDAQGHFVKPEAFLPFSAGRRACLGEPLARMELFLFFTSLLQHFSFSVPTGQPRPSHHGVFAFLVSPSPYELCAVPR

Regarding `COc1cc(N2CCN(C(=O)Cn3nc(C(F)(F)F)c(Cl)c3C)CC2)ccc1Cl`, the inhibition entry in [1], in data set [2] and in data set [3] was “inactive” in each case. In addition, the result in data set [4], in data set [5], in data set [6], in data set [7] and in [8] was inactive. The Activity entry in the data set with Salmonella typhimurium [9] and with Salmonella typhimurium [10] was “Non-toxic” throughout. Also, the pIC50 (commonly the negative decadic logarithm of the IC50, by convention in mol/L) at Cytochrome P450 2D6 was less than 5.00. Further, in data set [11], the half-life (in general, the time needed for the level to fall by half in the phase considered) was 13.4 h.
